Source: patent US11168055B2, “Endocyclic thiamidinoamide-arylamide compound and use thereof for treating hepatitis B” (SHANGHAI LONGWOOD BIOPHARMACEUTICALS CO., LTD., priority 2017, dated 2021)
pEC50: −log10 of the molar value. Like-named read-outs stand apart in the source and are kept apart here.

How the values were obtained:
[1] = system: HBV DNA in the supernatant of HepG2.2.15; assay: Determination of anti-HBV activity in HepG2.2.15 cell (HBV DNA in supernatant by qPCR); format: cell-based, Hepatitis B virus; conditions: HBV DNA, read-out: Experiment 2 Cell experiment EC50
HepG2 cells = assay: Determination of cytotoxicity (HepG2 cells, resazurin assay, 4 days); format: cell-based; conditions: read-out: Experiment 3 Cytotoxicity CC50
Method: Experiment 3: Determination of Cytotoxicity
The cytotoxicity of the test compound was tested using HepG2 cells. The cells were incubated for 4 days in the presence of the test compound. Cell activity was assessed using the resazurin assay.

Structure (SMILES)	pEC50 ([1]; HepG2.2.15 cells)	CC50 (HepG2 cells)	pEC50 ([1]; Hepatitis B virus, HepG2.2.15, HepG2.2.15 cells)
CC(C)[C@H]1C=Cc2c(cn(C)c2C(=O)Nc2ccc(F)c(F)c2)S(=N)(=O)N1 (single isomer, unassigned) [Compound 10a2]	7.00 to 10.00	> 30000 nM	–
CC(C)[C@H]1C=Cc2c(cn(C)c2C(=O)Nc2ccc(F)c(C#N)c2)S(=N)(=O)N1 (single isomer, unassigned) [Compound 10b2]	–	> 30000 nM	7.00 to 10.00
Cn1cc2c(c1C(=O)Nc1ccc(F)c(F)c1)C=C[C@H](C1CCCCC1)NS2(=N)=O (single isomer, unassigned) [Compound 10bb2]	7.00 to 10.00	> 30000 nM	–
CC(C)[C@H]1C=Cc2c(cn(C)c2C(=O)Nc2cc(F)c(F)c(F)c2)S(=N)(=O)N1 (single isomer, unassigned) [Compound 10c2]	7.00 to 10.00	> 30000 nM	–
Cn1cc2c(c1C(=O)Nc1ccc(F)c(C#N)c1)C=C[C@H](C1CCCCC1)NS2(=N)=O (single isomer, unassigned) [Compound 10cc2]	7.00 to 10.00	> 30000 nM	–
C[C@@H](OCc1ccccc1)[C@H]1C=Cc2c(cn(C)c2C(=O)Nc2ccc(F)c(C#N)c2)S(=N)(=O)N1 (single isomer, unassigned) [Compound 10ccc2]	7.00 to 10.00	> 30000 nM	–
C[C@@H](OCc1ccccc1)[C@H]1C=Cc2c(cn(C)c2C(=O)Nc2cc(F)c(F)c(F)c2)S(=N)(=O)N1 (single isomer, unassigned) [Compound 10ddd2]	7.00 to 10.00	> 30000 nM	–
CC(C)[C@H]1C=Cc2c(cn(C)c2C(=O)Nc2cc(F)nc(C#N)c2)S(=N)(=O)N1 (single isomer, unassigned) [Compound 10e2]	7.00 to 10.00	> 30000 nM	–
CC(C)[C@H]1C=Cc2c(cn(C)c2C(=O)Nc2ccnc(C(F)F)c2)S(=N)(=O)N1 (single isomer, unassigned) [Compound 10f2]	7.00 to 10.00	> 30000 nM	–
CC(C)[C@@H]1C=Cc2c(cn(C)c2C(=O)Nc2ccc(F)c(F)c2)S(=N)(=O)N1 (single isomer, unassigned) [Compound 10g2]	7.00 to 10.00	> 30000 nM	–
CC(C)[C@@H]1C=Cc2c(cn(C)c2C(=O)Nc2ccc(F)c(C#N)c2)S(=N)(=O)N1 (single isomer, unassigned) [Compound 10h2]	< 6.00	> 30000 nM	–
CC[C@H](C)[C@H]1C=Cc2c(cn(C)c2C(=O)Nc2ccc(F)c(F)c2)S(=N)(=O)N1 (single isomer, unassigned) [Compound 10n2]	7.00 to 10.00	> 30000 nM	–
CC[C@H](C)[C@H]1C=Cc2c(cn(C)c2C(=O)Nc2ccc(F)c(C#N)c2)S(=N)(=O)N1 (single isomer, unassigned) [Compound 10o2]	7.00 to 10.00	> 30000 nM	–
COc1ccc(CC[C@H](C)[C@H]2C=Cc3c(cn(C)c3C(=O)Nc3cc(F)nc(C#N)c3)S(=N)(=O)N2)cc1 (single isomer, unassigned) [Compound 10vvv2]	7.00 to 10.00	> 30000 nM	–
CC(C)C[C@H]1C=Cc2c(cn(C)c2C(=O)Nc2cc(F)nc(C#N)c2)S(=N)(=O)N1 (single isomer, unassigned) [Compound 10w2]	7.00 to 10.00	> 30000 nM	–
CC(C)[C@H]1CCc2c(cn(C)c2C(=O)Nc2ccc(F)c(F)c2)S(=N)(=O)N1 (single isomer, unassigned) [Compound 20a2]	7.00 to 10.00	> 30000 nM	–
CC(C)[C@H]1CCc2c(cn(C)c2C(=O)Nc2ccc(F)c(C#N)c2)S(=N)(=O)N1 (single isomer, unassigned) [Compound 20b2]	7.00 to 10.00	> 30000 nM	–
CC(C)[C@H]1CCc2c(cn(C)c2C(=O)Nc2cc(F)c(F)c(F)c2)S(=N)(=O)N1 (single isomer, unassigned) [Compound 20c2]	7.00 to 10.00	> 30000 nM	–
C[C@@H](OCc1ccccc1)[C@H]1CCc2c(cn(C)c2C(=O)Nc2ccc(F)c(C#N)c2)S(=N)(=O)N1 (single isomer, unassigned) [Compound 20ccc2]	7.00 to 10.00	> 30000 nM	–
Cn1cc2c(c1C(=O)Nc1cc(F)nc(C#N)c1)CC[C@H](C1CCCCC1)NS2(=N)=O (single isomer, unassigned) [Compound 20dd2]	7.00 to 10.00	> 30000 nM	–
Cn1cc2c(c1C(=O)Nc1ccnc(C(F)F)c1)CC[C@H](C1CCCCC1)NS2(=N)=O (single isomer, unassigned) [Compound 20ee2]	7.00 to 10.00	> 30000 nM	–
COc1ccc(CC[C@H](C)[C@H]2CCc3c(cn(C)c3C(=O)Nc3cc(F)c(F)c(F)c3)S(=N)(=O)N2)cc1 (single isomer, unassigned) [Compound 20ttt2]	7.00 to 10.00	> 30000 nM	–
CC(O)[C@H]1C=Cc2c(cn(C)c2C(=O)Nc2ccc(F)c(F)c2)S(=N)(=O)N1 (single isomer, unassigned) [Compound 30a2]	6.00 to 7.00	> 30000 nM	–

Structure (SMILES)	pEC50 ([1]; HepG2.2.15 cells)	CC50 (HepG2 cells)	pEC50 ([1]; Hepatitis B virus, HepG2.2.15, HepG2.2.15 cells)
CC(O)[C@H]1C=Cc2c(cn(C)c2C(=O)Nc2ccc(F)c(C#N)c2)S(=N)(=O)N1 (single isomer, unassigned) [Compound 30b2]	6.00 to 7.00	> 30000 nM	–
CC(O)[C@H]1C=Cc2c(cn(C)c2C(=O)Nc2cc(F)c(F)c(F)c2)S(=N)(=O)N1 (single isomer, unassigned) [Compound 30c2]	6.00 to 7.00	> 30000 nM	–
Cn1cc2c(c1C(=O)Nc1ccc(F)c(F)c1)C=C[C@H](CO)NS2(=N)=O (single isomer, unassigned) [Compound 30g2]	6.00 to 7.00	> 30000 nM	–
CC(O)[C@H]1CCc2c(cn(C)c2C(=O)Nc2ccc(F)c(F)c2)S(=N)(=O)N1 (single isomer, unassigned) [Compound 40a2]	6.00 to 7.00	> 30000 nM	–
CC(O)[C@H]1CCc2c(cn(C)c2C(=O)Nc2ccc(F)c(C#N)c2)S(=N)(=O)N1 (single isomer, unassigned) [Compound 40b2]	6.00 to 7.00	> 30000 nM	–
Cn1cc2c(c1C(=O)Nc1ccc(F)c(F)c1)CC[C@H](CO)NS2(=N)=O (single isomer, unassigned) [Compound 40g2]	6.00 to 7.00	> 30000 nM	–
CN=S1(=O)N[C@@H](C(C)C)C=Cc2c1cn(C)c2C(=O)Nc1ccc(F)c(F)c1 (single isomer, unassigned) [Compound 50a2]	7.00 to 10.00	> 30000 nM	–
CN=S1(=O)N[C@@H](CC(C)C)C=Cc2c1cn(C)c2C(=O)Nc1ccc(F)c(C#N)c1 (single isomer, unassigned) [Compound 50s2]	7.00 to 10.00	> 30000 nM	–
CCN=S1(=O)N[C@@H](CC(C)C)C=Cc2c1cn(C)c2C(=O)Nc1ccc(F)c(C#N)c1 (single isomer, unassigned) [Compound 50t2]	7.00 to 10.00	> 30000 nM	–
CC(C)C[C@H]1C=Cc2c(cn(C)c2C(=O)Nc2ccc(F)c(C#N)c2)S(=O)(=NC(C)C)N1 (single isomer, unassigned) [Compound 50u2]	7.00 to 10.00	> 30000 nM	–
CC(C)C[C@H]1C=Cc2c(cn(C)c2C(=O)Nc2ccc(F)c(C#N)c2)S(=O)(=NC2CC2)N1 (single isomer, unassigned) [Compound 50v2]	7.00 to 10.00	> 30000 nM	–
CN=S1(=O)N[C@@H](C(C)C)CCc2c1cn(C)c2C(=O)Nc1ccc(F)c(F)c1 (single isomer, unassigned) [Compound 60a2]	7.00 to 10.00	> 30000 nM	–
CCN=S1(=O)N[C@@H](C(C)C)CCc2c1cn(C)c2C(=O)Nc1ccc(F)c(C#N)c1 (single isomer, unassigned) [Compound 60g2]	7.00 to 10.00	> 30000 nM	–
CN=S1(=O)N[C@@H](CC(C)C)CCc2c1cn(C)c2C(=O)Nc1ccc(F)c(C#N)c1 (single isomer, unassigned) [Compound 60v2]	7.00 to 10.00	> 30000 nM	–
CCN=S1(=O)N[C@@H](CC(C)C)CCc2c1cn(C)c2C(=O)Nc1ccc(F)c(C#N)c1 (single isomer, unassigned) [Compound 60w2]	7.00 to 10.00	> 30000 nM	–
CC(C)C[C@H]1CCc2c(cn(C)c2C(=O)Nc2ccc(F)c(C#N)c2)S(=O)(=NC(C)C)N1 (single isomer, unassigned) [Compound 60x2]	7.00 to 10.00	> 30000 nM	–
CC(C)C[C@H]1CCc2c(cn(C)c2C(=O)Nc2ccc(F)c(C#N)c2)S(=O)(=NC2CC2)N1 (single isomer, unassigned) [Compound 60y2]	7.00 to 10.00	> 30000 nM	–
CC(C)[C@H]1C=Cc2c(nn(C)c2C(=O)Nc2ccc(F)c(C#N)c2)S(=N)(=O)N1 (single isomer, unassigned) [Compound 70a2]	7.00 to 10.00	> 30000 nM	–
CC(C)C[C@H]1C=Cc2c(nn(C)c2C(=O)Nc2ccc(F)c(C#N)c2)S(=N)(=O)N1 (single isomer, unassigned) [Compound 70b2]	7.00 to 10.00	> 30000 nM	–
CC(C)[C@H]1CCc2c(nn(C)c2C(=O)Nc2ccc(F)c(C#N)c2)S(=N)(=O)N1 (single isomer, unassigned) [Compound 80a2]	7.00 to 10.00	> 30000 nM	–
CC(C)C[C@H]1CCc2c(nn(C)c2C(=O)Nc2ccc(F)c(C#N)c2)S(=N)(=O)N1 (single isomer, unassigned) [Compound 80b2]	7.00 to 10.00	> 30000 nM	–
CN=S1(=O)N[C@@H](C(C)C)CCc2c1nn(C)c2C(=O)Nc1ccc(F)c(C#N)c1 (single isomer, unassigned) [Compound 90a2]	7.00 to 10.00	> 30000 nM	–
CN=S1(=O)N[C@@H](CC(C)C)CCc2c1nn(C)c2C(=O)Nc1ccc(F)c(C#N)c1 (single isomer, unassigned) [Compound 90b2]	7.00 to 10.00	> 30000 nM	–
